Measurements reported in US10874739B2, “Near-IR light-cleavable conjugates and conjugate precursors” (The United States of America, as represented by the …, priority 2016, dated 2020).

Legend:
[1] = test system: MCF-7 (EGFR−); assay: Near-IR light-dependent growth inhibition, MTT, pre-incubation assay (media exchanged prior to photolysis); assay type: cell-based, human; settings: ±hν
Procedure: (§1) MDA-MB-468 (EGFR overexpression) and MCF-7 (normal EGFR expression) human breast cancer cell lines were obtained from the NCI DTP, DCTD Tumor Repository. MDA-MB-468 was cultured in RPMI supplemented with 2 mM L-glutamine, 11 mM D-glucose, 24 mM sodium bicarbonate, 10% heat-inactivated fetal bovine serum, 100 units/mL penicillin, 100 μg/mL streptomycin, and 0.25 μg/mL amphotericin B. MCF-7 was cultured in DMEM supplemented with 4 mM L-glutamine, 25 mM D-glucose, 44 mM sodium bicarbonate, 10% heat-inactivated fetal bovine serum, 100 units/mL penicillin, 100 μg/mL streptomycin, and 0.25 μg/mL amphotericin B. Both cell lines were grown at 37° C. in an atmosphere of 20% O2 and 5% CO2. Stock cultures were maintained in continuously exponential growth by weekly passage of the appropriate number of cells following trypsinization with 0.25% Trypsin-EDTA (0.9 mM) in PBS.
(§2) MDA-MB-468 or MCF-7 cells were seeded into 96-well plates (5×10^4 cells/well) and allowed to adhere overnight. […] Irradiation times may be calculated according to the following formula:
(§3) [formula] […] Media was removed, 100 μL of DMSO added to each well to solubilize MTT formazan, and absorbance at 550 nm was recorded using a microplate reader. Drug effects were expressed as % cell viability relative to the DMSO (no inhibitor) control. […]

[2] = test system: MDA-MB-468 (EGFR+); assay: as above; assay type: cell-based, human; settings: ±hν
Procedure: as §1, §2, §3

Compound CN(C)CCOc1ccc2[nH]c(C(=O)N3C[C@@H](CCl)c4c3cc(O)c3ccccc43)cc2c1 [DuoDM, duocarmycin DM, reference compound] has an IC50 [1] of 0.0133 ± 0.0011 nM and an IC50 [2] of 0.007 ± 0.0006 nM.
